# Source: patent US12180255B2, “Compositions and methods for derepressing RE1 silencing transcription factor target genes” (Alcamena Stem Cell Therapeutics, LLC, priority 2019, dated 2024)
# Where a SMILES comes first, the peptide text is derived from it. [ ]: non-standard residue; d: D form. Gly(Dodecyl) = CCCCCCCCCCCC[C@H](N)C(=O)O
# What was measured:
# Assay type in all cases: biochemical
# [1] = molecular target: PP3CA (Homo sapiens, UniProt Q08209); assay: Off target phosphatase activity on phosphorylated REST peptide; conditions: 10000 nM RPP
# [2] = molecular target: T1, PPA1 (Homo sapiens, UniProt Q15181); assay: as above; conditions: 10000 nM RPP
# T1 sequence (Q15181 2-289 limits assumed): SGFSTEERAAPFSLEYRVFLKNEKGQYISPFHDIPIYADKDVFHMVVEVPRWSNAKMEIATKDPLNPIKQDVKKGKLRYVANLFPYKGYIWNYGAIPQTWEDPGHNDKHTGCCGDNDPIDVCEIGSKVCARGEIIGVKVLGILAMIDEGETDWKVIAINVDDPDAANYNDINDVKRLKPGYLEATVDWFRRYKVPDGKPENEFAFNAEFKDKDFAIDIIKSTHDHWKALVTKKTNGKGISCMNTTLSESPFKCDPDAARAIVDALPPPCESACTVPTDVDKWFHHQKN
# [3] = molecular target: T2, PPM1A (Homo sapiens, UniProt P35813); assay: as above; conditions: 10000 nM RPP
# T2 sequence (P35813 1-382): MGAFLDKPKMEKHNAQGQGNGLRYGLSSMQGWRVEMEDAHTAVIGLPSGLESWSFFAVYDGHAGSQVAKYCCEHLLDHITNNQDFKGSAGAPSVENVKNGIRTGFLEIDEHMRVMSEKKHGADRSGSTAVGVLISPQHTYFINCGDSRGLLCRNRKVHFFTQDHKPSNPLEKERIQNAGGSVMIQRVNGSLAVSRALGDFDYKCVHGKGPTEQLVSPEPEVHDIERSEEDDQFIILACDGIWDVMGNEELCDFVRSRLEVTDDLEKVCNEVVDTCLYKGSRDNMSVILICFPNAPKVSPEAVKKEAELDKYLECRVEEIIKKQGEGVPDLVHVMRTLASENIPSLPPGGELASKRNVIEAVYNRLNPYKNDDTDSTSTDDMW
# [4] = molecular target: T3, PP5CA (Homo sapiens, UniProt P53041); assay: as above; conditions: 10000 nM RPP
# T3 sequence (P53041 1-499): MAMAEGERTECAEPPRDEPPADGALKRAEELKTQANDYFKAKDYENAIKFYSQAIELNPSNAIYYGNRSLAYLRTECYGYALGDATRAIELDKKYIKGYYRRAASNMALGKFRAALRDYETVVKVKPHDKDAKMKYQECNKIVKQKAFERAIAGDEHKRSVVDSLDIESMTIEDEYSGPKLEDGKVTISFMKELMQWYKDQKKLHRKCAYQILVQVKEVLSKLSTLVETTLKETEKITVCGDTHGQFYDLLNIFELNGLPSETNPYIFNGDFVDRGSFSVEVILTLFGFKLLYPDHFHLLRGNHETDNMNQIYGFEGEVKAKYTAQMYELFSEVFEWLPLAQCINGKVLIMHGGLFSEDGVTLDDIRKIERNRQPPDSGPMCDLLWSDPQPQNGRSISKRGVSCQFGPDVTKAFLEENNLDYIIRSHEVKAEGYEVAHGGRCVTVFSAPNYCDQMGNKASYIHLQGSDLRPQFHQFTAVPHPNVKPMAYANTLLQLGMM
# [5] = molecular target: T4, CTDSP1 (Homo sapiens, UniProt Q9GZU7); assay: In vitro CTDSP1 phosphatase activity on phosphorylated REST peptide; conditions: relative to water control
# T4 construct: GSGS linker + His6 (C)
# T4 sequence (Q9GZU7 with tags, fused parts or gaps): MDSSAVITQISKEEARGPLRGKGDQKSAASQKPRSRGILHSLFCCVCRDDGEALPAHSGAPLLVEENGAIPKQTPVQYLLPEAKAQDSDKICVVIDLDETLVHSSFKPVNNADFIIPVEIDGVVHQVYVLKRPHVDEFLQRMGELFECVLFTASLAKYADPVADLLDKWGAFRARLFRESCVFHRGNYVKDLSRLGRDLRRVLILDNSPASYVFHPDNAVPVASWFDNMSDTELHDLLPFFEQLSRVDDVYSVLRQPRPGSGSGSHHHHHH
# [6] = molecular target: PPP1CA (Homo sapiens, UniProt P62136); assay: Off target phosphatase activity on phosphorylated REST peptide; conditions: 10000 nM RPP
# PPP1CA, sequence (P62136 whole entry, species assumed): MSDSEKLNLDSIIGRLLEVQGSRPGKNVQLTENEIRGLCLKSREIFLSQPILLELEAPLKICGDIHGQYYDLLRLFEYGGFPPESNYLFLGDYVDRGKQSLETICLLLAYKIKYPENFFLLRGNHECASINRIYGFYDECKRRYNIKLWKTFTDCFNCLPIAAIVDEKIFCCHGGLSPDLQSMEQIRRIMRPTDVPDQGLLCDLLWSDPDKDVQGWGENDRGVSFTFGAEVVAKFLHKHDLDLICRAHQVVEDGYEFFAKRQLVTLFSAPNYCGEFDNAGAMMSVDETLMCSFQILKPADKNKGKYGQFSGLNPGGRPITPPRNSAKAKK
smiles,measurement,setting,value
CCCCCCCCCCCC[C@@H]1NC(=O)[C@@H](CCCNC(=N)N)NC(=O)[C@@H](CCCNC(=N)N)NC(=O)[C@@H](Cc2c[nH]c3ccccc23)NC(=O)[C@@H](Cc2c[nH]c3ccccc23)NC(=O)[C@@H](CCCNC(=N)N)NC(=O)[C@@H](CCC(=O)O)NC(=O)[C@@H](CC(=O)O)NC(=O)[C@@H](CC(C)C)NC(=O)[C@@H](CCC(=O)O)NC(=O)[C@H]2CCCN2C(=O)[C@H]2CCCN2C(=O)[C@@H](CCC(=O)O)NC(=O)[C@H]2CCCN2C(=O)[C@H]2CCCN2C(=O)[C@@H](CC(C)C)NC(=O)[C@H]2CCCN2C(=O)[C@@H](CCCCN)NC(=O)[C@@H](CCCNC(=N)N)NC(=O)[C@@H](CCCNC(=N)N)NC(=O)[C@@H](CCCNC(=N)N)NC(=O)[C@@H](CCCNC(=N)N)NC(=O)[C@@H](CCCNC(=N)N)NC1=O [SEQ ID NO: 12] (cyclo([dR][dW][dW][dR][dR][Gly(Dodecyl)][dR][dR][dR][dR][dR][dK][dP][dL][dP][dP][dE][dP][dP][dE][dL][dD][dE])),% Activity (Average N = 5),[1],100.222%
same,% Activity (Average N = 5),[2],101.125%
same,% Activity (Average N = 5),[3],102.786%
same,% Activity (Average N = 5),[4],97.902%
same,% Activity (Average N = 5),[5]; 10 nM RPP,89.97%
same,% Activity (Average N = 5),[5]; 20 nM RPP,48.7%
same,% Activity (Average N = 5),[5]; 40 nM RPP,34.46%
same,% Activity (Average N = 5),[5]; 60 nM RPP,31.17%
same,% Activity (Average N = 5),[5]; 80 nM RPP,22.67%
same,% Activity (Average N = 5),[5]; 100 nM RPP,13.72%
same,% Activity (Average N = 5),[6],101.136%
